Active and inactive are the calls of the source. The rule behind the calls is not given here.
Experiments:
Calvarial osteoblast [1] = assay: Induction of osteoblast differentiation in rat Calvaria osteoblast cells measured assessed as increase in alkaline phosphatase activity at 0.000001 to 1 uM incubated for 48 hrs using PNPP as substrate; type: functional, cell-based; details: dose lower 1e-06 µM, dose upper 1.0 µM
[2] = Induction of osteogeneis in rat calvarial osteoblast cells assessed as fold upregulation of ALP gene expression at 100 pM measured after 48 hrs by qPCR analysis relative to control; type: functional
Calvarial osteoblast [3] = assay: Induction of osteoblast differentiation in rat Calvaria osteoblast cells measured assessed as maximal increase in alkaline phosphatase activity incubated for 48 hrs using PNPP as substrate; type: functional
Calvarial osteoblast [4] = assay: Cytotoxicity against rat Calvarial osteoblast cells assessed as viable cells measured at 0.000001 to 1 uM measure after 48 hrs by cell viability assay; type: cell-based; details: dose lower 1e-06 µM, dose upper 1 µM
Calvarial osteoblast [5] = assay: Induction of mineralization in rat Calvarial osteoblast cells measured at 100 pM measured for 14 days by Cetylpyridinium chloride method; type: functional, tissue-based; details: time 14.0 day
[6] = Induction of osteogeneis in rat calvarial osteoblast cells assessed as fold upregulation of RUNX2 gene expression at 1 pM measured after 48 hrs by qPCR analysis relative to control; type: functional
[7] = Induction of osteogeneis in rat calvarial osteoblast cells assessed as fold upregulation of BMP-2 gene expression at 100 pM measured after 48 hrs by qPCR analysis relative to control; type: functional
[8] = Induction of osteogeneis in rat calvarial osteoblast cells assessed as fold upregulation of Col1 gene expression at 100 pM measured after 48 hrs by qPCR analysis relative to control; type: functional
Calvarial osteoblast [9] = assay: Induction of osteoblast differentiation in rat Calvaria osteoblast cells measured assessed as increase in alkaline phosphatase activity at 1 pM incubated for 48 hrs using PNPP as substrate; type: functional, cell-based
Calvarial osteoblast [10] = assay: Induction of osteoblast differentiation in rat Calvaria osteoblast cells measured assessed as increase in alkaline phosphatase activity at 10 pM incubated for 48 hrs using PNPP as substrate; type: functional, cell-based
Calvarial osteoblast [11] = assay: Induction of rat Calvarial osteoblast cell proliferation at 0.000001 to 1 uM measured after 48 hrs by MTT assay; type: functional, tissue-based; details: dose lower 1e-06 µM, dose upper 1.0 µM
Calvarial osteoblast [12] = assay: Induction of mineralization in rat Calvarial osteoblast cells measured at 10 nM measured for 14 days by Cetylpyridinium chloride method; type: functional, tissue-based; details: time 14.0 day
Calvarial osteoblast [13] = assay: Induction of osteogenesis in rat calvarial osteoblast cells assessed as fold upregulation of BMP-2 gene expression at 10 nM measured after 48 hrs by qPCR analysis relative to control; type: functional
[14] = Induction of osteogeneis in rat calvarial osteoblast cells assessed as fold upregulation of Col1 gene expression at 10 nM measured after 48 hrs by qPCR analysis relative to control; type: functional
[15] = Induction of osteogeneis in rat calvarial osteoblast cells assessed as fold upregulation of RUNX2 gene expression at 10 nM measured after 48 hrs by qPCR analysis relative to control; type: functional
Calvarial osteoblast [16] = assay: Induction of mineralization in rat Calvarial osteoblast cells measured at 1 pM measured for 14 days by Cetylpyridinium chloride method; type: functional, tissue-based; details: time 14.0 day
[17] = Induction of osteogeneis in rat calvarial osteoblast cells assessed as fold upregulation of ALP gene expression at 1 pM measured after 48 hrs by qPCR analysis relative to control; type: functional
[18] = Induction of osteogeneis in rat calvarial osteoblast cells assessed as fold upregulation of BMP-2 gene expression at 1 pM measured after 48 hrs by qPCR analysis relative to control; type: functional
[19] = (§1) Induction of osteogeneis in rat calvarial osteoblast cells assessed as fold upregulation of Col1 gene expression at 1 pM measured after 48 hrs by qPCR analysis relative to control; type: functional
Calvarial osteoblast [20] = assay: Induction of osteogenesis in rat calvarial osteoblast cells assessed as upregulation of BMP-2 protein expression at 1 pM measured after 48 hrs by immunoblotting analysis; type: functional, cell-based
Calvarial osteoblast [21] = assay: Induction of osteogeneis in rat calvarial osteoblast cells assessed as upregulation of RUNX2 protein expression at 1 pM measured after 48 hrs by immunoblotting analysis; type: functional, tissue-based
Calvarial osteoblast [22] = assay: Induction of osteoblast differentiation in rat Calvaria osteoblast cells measured assessed as increase in alkaline phosphatase activity at 0.000001 to 1 uM incubated for 48 hrs using PNPP as substrate in presence of noggin; type: functional, cell-based; details: dose lower 1e-06 µM, dose upper 1.0 µM
[23] = In vivo induction of osteogenic activity in neonatal rat pups assessed as fold increase in RUNX2 gene expression in calvarial tissue at 5 mg/kg, sc administered for 6 days; type: functional, Calvaria; details: time 6 day
Rattus norvegicus [24] = assay: In vivo induction of osteogenic activity in neonatal rat pups assessed as fold increase in BMP-2 gene expression in calvarial tissue at 5 mg/kg, sc administered for 6 days; type: functional, organism-based; details: Calvaria, time 6.0 day
[25] = In vivo induction of osteogenic activity in neonatal rat pups assessed as fold increase in OCN gene expression in calvarial tissue at 5 mg/kg, sc administered for 6 days; type: functional, Calvaria; details: time 6 day
[26] = In vivo induction of osteogenic activity in neonatal rat pups assessed as fold increase in OCN gene expression in calvarial tissue at 10 mg/kg, sc administered for 6 days; type: functional, Calvaria; details: time 6 day
Rattus norvegicus [27] = assay: Induction of new bone formation in rat pups assessed as mineral apposition rate in calvaria at 5 mg/kg, sc measured after 5 days by fluorescent microscopy by relative to control; type: functional, organism-based; details: time 5.0 day
Rattus norvegicus [28] = assay: Induction of new bone formation in rat pups assessed as mineralized bone formation in calvaria by measuring bone formation rate at 5 mg/kg, sc measured after 5 days by fluorescent microscopy by relative to control; type: functional, organism-based; details: time 5.0 day
Rattus norvegicus [29] = assay: Induction of new bone formation in rat pups assessed as mineralized bone formation in calvaria by measuring bone formation rate at 10 mg/kg, sc measured after 5 days by fluorescent microscopy by relative to control; type: functional, organism-based; details: time 5.0 day
Rattus norvegicus [30] = assay: Induction of new bone formation in rat pups assessed as mineralized bone formation in calvaria by measuring increase in calvarial thickness at 5 mg/kg, sc measured after 5 days by Hematoxylin and eosin staining based quantitative histology; type: functional, organism-based; details: time 5.0 day
Rattus norvegicus [31] = assay: Induction of bone regeneration in adult rat femur osteotomy model assessed as increase in bone volume/tissue volume fraction measured at 5 mg/kg, po for 14 days by microCT analysis relative to control; type: functional; details: time 14 day
Rattus norvegicus [32] = assay: Induction of bone regeneration in adult rat femur osteotomy model assessed as increase in trabecular thickness measured at 5 mg/kg, po for 14 days by microCT analysis relative to control; type: functional, organism-based; details: time 14.0 day
Rattus norvegicus [33] = assay: Induction of bone regeneration in adult rat femur osteotomy model assessed as increase in trabecular number measured at 5 mg/kg, po for 14 days by microCT analysis relative to control; type: functional, organism-based; details: time 14.0 day
[34] = Induction of bone regeneration in adult rat femur osteotomy model assessed as fold increase in OCN expression in fracture calluses measured at 5 mg/kg, po for 14 days by […] relative to control; type: functional; details: time 14 day
[35] = Induction of bone regeneration in adult rat femur osteotomy model assessed as fold increase in Col1 gene expression in fracture calluses measured at 5 mg/kg, po for 14 days by […] relative to control; type: functional; details: time 14 day
Rattus norvegicus [36] = assay: Induction of bone regeneration in adult rat femur osteotomy model assessed as restoration of bone morphology measured at 5 mg/kg, po for 14 days by toluidine blue staining based analysis; type: functional, organism-based; details: time 14.0 day
[37] = Stability of the compound in simulated gastric acid at pH 1.2 measured after 1 hr by LC-MS/MS analysis; type: ADME; details: read-out: Stability
[38] = Stability of the compound in simulated intestinal acid at pH 6.5 measured after 1 hr by LC-MS/MS analysis; type: ADME; details: read-out: Stability
[39] = Stability in rat plasma after 1 hr incubation by LC-MS/MS analysis; type: ADME, cell-free; details: read-out: Stability
[40] = Stability in rat liver microsomes after 1 hr incubation by LC-MS/MS analysis; type: ADME, Microsome
[41] = Cmax in Sprague-Dawley rat at 5 mg/kg, po by LC-MS/MS analysis; type: ADME, organism-based; parameters: route oral, dose 5 mg/kg; details: in vivo
[42] = Cmax in Sprague-Dawley rat at 10 mg/kg, po by LC-MS/MS analysis; type: ADME, organism-based; parameters: route oral, dose 10 mg/kg; details: in vivo
[43] = AUC in Sprague-Dawley rat at 5 mg/kg, po by LC-MS/MS analysis; type: ADME, organism-based; parameters: dose 5 mg/kg; details: in vivo
[44] = AUC in Sprague-Dawley rat at 10 mg/kg, po by LC-MS/MS analysis; type: ADME, organism-based; parameters: dose 10 mg/kg; details: in vivo
[45] = Volume of distribution in Sprague-Dawley rat at 10 mg/kg, po by LC-MS/MS analysis; type: ADME, organism-based; details: in vivo
[46] = Volume of distribution in Sprague-Dawley rat at 5 mg/kg, po by LC-MS/MS analysis; type: ADME, organism-based; details: in vivo
[47] = Clearance in Sprague-Dawley rat at 10 mg/kg, po by LC-MS/MS analysis; type: ADME, organism-based; details: in vivo
[48] = Clearance in Sprague-Dawley rat at 5 mg/kg, po by LC-MS/MS analysis; type: ADME, organism-based; details: in vivo
[49] = Half life in Sprague-Dawley rat at 5 mg/kg, po by LC-MS/MS analysis; type: ADME, organism-based; details: in vivo
[50] = Half life in Sprague-Dawley rat at 10 mg/kg, po by LC-MS/MS analysis; type: ADME, organism-based; details: in vivo
[51] = MRT in Sprague-Dawley rat at 5 mg/kg, po by LC-MS/MS analysis; type: ADME, organism-based; details: in vivo
[52] = MRT in Sprague-Dawley rat at 10 mg/kg, po by LC-MS/MS analysis; type: ADME, organism-based; details: in vivo
Rattus norvegicus [53] = assay: Induction of bone regeneration in adult rat femur osteotomy model assessed as increase in calcein labeled callus measured at 5 mg/kg, po for 14 days by calcein labeling study relative to control; type: functional; details: time 14 day
Calvarial osteoblast [54] = assay: as §1; type: functional

COc1cccc([C@H]2CC(=O)c3cc(NC(=O)c4cc(OC)c(OC)c(OC)c4)ccc3O2)c1
Activity (Calvarial osteoblast [1]): Active

COc1cc(C(=O)Nc2ccc3c(c2)C(=O)CC(c2ccccc2)O3)cc(OC)c1OC (stereo not given)
fold change (FC) [2]: 1.3
ECmax (Calvarial osteoblast [3]): 10 pM
Activity (Calvarial osteoblast [4]): Non-Toxic
Activity (Calvarial osteoblast [5]): Active
fold change (FC) [6]: 2
fold change (FC) [7]: 1.9
fold change (FC) [8]: 1.8

COc1cc(C(=O)O)cc(OC)c1OC
Activity (Calvarial osteoblast [9]): Active
Activity (Calvarial osteoblast [10]): Active

COc1cccc([C@@H]2CC(=O)c3cc(NC(=O)c4cc(OC)c(OC)c(OC)c4)ccc3O2)c1
Activity (Calvarial osteoblast [1]): Active

COc1cc(C(=O)Nc2ccc3c(c2)C(O)CC(c2cccc(C)c2)O3)cc(OC)c1OC (stereo not given)
fold change (FC) [2]: 2.3
ECmax (Calvarial osteoblast [3]): 100 pM
Activity (Calvarial osteoblast [4]): Non-Toxic
Activity (Calvarial osteoblast [11]): Active
Activity (Calvarial osteoblast [12]): Active
fold change (FC) (Calvarial osteoblast [13]): 1.83
fold change (FC) [14]: 1.55
fold change (FC) [15]: 1.8

COc1cccc(C2CC(=O)c3cc(NC(=O)c4cc(OC)c(OC)c(OC)c4)ccc3O2)c1 (racemic)
ECmax (Calvarial osteoblast [3]): 1000 pM
Activity (Calvarial osteoblast [4]): Non-Toxic
Activity (Calvarial osteoblast [11]): Toxic
Activity (Calvarial osteoblast [16]): Active
fold change (FC) [17]: 5.5
fold change (FC) [18]: 4.4
fold change (FC) [19]: 2.9
fold change (FC) [6]: 3.7
Activity (Calvarial osteoblast [20]): Active
Activity (Calvarial osteoblast [9]): Active
Activity (Calvarial osteoblast [10]): Active
Activity (Calvarial osteoblast [21]): Active
Activity (Calvarial osteoblast [22]): inactive
fold change (FC) [23]: 2
Activity (Rattus norvegicus [24]): Dose-Dependent Effect
fold change (FC) [25]: 18
fold change (FC) [26]: 10
Activity (Rattus norvegicus [27]): inactive
Activity (Rattus norvegicus [28]): Active
Activity (Rattus norvegicus [29]): Active
Activity (Rattus norvegicus [30]): Active
Activity (Rattus norvegicus [31]): 44.3%
Activity (Rattus norvegicus [32]): Active
Activity (Rattus norvegicus [33]): Active
fold change (FC) [34]: 2.2
fold change (FC) [35]: 2.5
Activity (Rattus norvegicus [36]): Active
remaining at 1 h [37]: 69%
remaining at 1 h [38]: 88%
remaining at 1 h [39]: 89%
Stability [40]: Stable
Cmax [41]: 736 ng/mL
Cmax [42]: 858 ng/mL
AUC [43]: 4820 ng·h/mL
AUC [44]: 6530 ng·h/mL
Vdss [45]: 12.99 L/kg
Vdss [46]: 8.42 L/kg
CL/F [47]: 25.7 mL/min/kg
CL/F [48]: 17.3 mL/min/kg
half-life [49]: 5.6 h
half-life [50]: 5.85 h
MRT [51]: 7.68 h
MRT [52]: 9.17 h
Activity (Rattus norvegicus [53]): 130%

COc1cc(C(=O)Nc2ccc3c(c2)C(=O)CC(c2ccc(C(C)(C)C)cc2)O3)cc(OC)c1OC (stereo not given)
ECmax (Calvarial osteoblast [3]): 10 pM
Activity (Calvarial osteoblast [4]): Non-Toxic
Activity (Calvarial osteoblast [11]): Toxic
Activity (Calvarial osteoblast [12]): Active
fold change (FC) [17]: 2.8
fold change (FC) [18]: 1.7
Activity (Calvarial osteoblast [54]): inactive
fold change (FC) [6]: 1.9

COc1cccc(C2CC(=O)c3cc([N+](=O)[O-])ccc3O2)c1 (stereo not given)
Activity (Calvarial osteoblast [9]): Active
Activity (Calvarial osteoblast [10]): Active

O=C(O)c1cc(O)c(O)c(O)c1
Activity (Calvarial osteoblast [9]): Active
Activity (Calvarial osteoblast [10]): Active
